Measured values taken from paper PMC11755785 (Langmuir, 2025).
Where two headings read alike, the source gives them in different places.

Columns and labels:
[1] = design: method as in PMID 34606770; conditions: Chart 1; cited from earlier work
[2] = UVA1 (365 nm) photodegradation in aqueous buffer, UV–vis spectra / RP-HPLC; assay type: physicochemical; conditions: for UVA1 photodegradation (spectral change): 50 μM, aqueous; for disruption on exposure to UV light: 4 h
Procedure: (§1) The samples were obtained after passage for appropriate periods and measured using an UV–vis spectrophotometer in the maximum range between 200 and 700 nm (arranged on demand) from long wavelengths toward short wavelengths to avoid unnecessary irradiation of the UV region. To obtain HPLC chromatograms, aliquots of the UV-irradiated solution were obtained by pipetting at 0, 1/5, 1/2, 1, 2, 3, 4, 24, 48, 72, 96, 120, 144, and 168 h for AVB and at 0, 1, 2, 3, and 18 h for CUR. To obtain those of OXB in the absence or presence of β-CD, the invariable samples were certified at 0 and 48 h. For the samples in acetonitrile aqueous solution or methanol aqueous solution at a ratio of 7:3, the time evolution of the UVA1 irradiated solution was examined under similar conditions.

[3] = UVA1 (365 nm) photodegradation in isochoric acetonitrile/water solvent; assay type: physicochemical
Procedure: as §1

[4] = Photostability under solar light, UV–vis spectra; assay type: physicochemical; conditions: solar light 4 h, 50 μM
Procedure: The photostability of the drug under solar light was evaluated using UV–vis spectral measurements. Sample solutions were exposed to solar light outdoors at a sunny location on a latitude of 35.92° N and a longitude of 139.91° E for 4 h, from 12:00 to 16:00, at an average temperature of 284.55 K.

[5] = Phase-solubility diagram with β-CD
Procedure: The solutions were mechanically shaken at 298 K in a thermostatic chamber, and the supernatant was sampled and filtered after passage for appropriate periods. The concentration of the drug in the supernatant was determined using HPLC.
The phase-solubility diagram consists of the equilibrium concentration of the guest drug as the ordinate and the total concentration of the host CD as the abscissa.[45] If a straight line and parabolic curve can be approximated on the phase-solubility diagram, then, the curves are classified as AL- and AP-types in the Higuchi and Connors catalogs, respectively.[45],[46]
Multiple regression analysis of the measured data set to the total concentration of the host ([CD]) and its squares ([CD]^2) using eq 3 can be used to obtain the stability constants for a combination of the equimolar complex K1:1 and double-host associating complex K1:2.[45],[46] [drawing 3] 3 This is the sum of the dissociated (free) and associated (complexed) drug concentrations. Although the Benesi–Hildebrand equation with the square of the host concentration has been used for parabolic correlations, its validity remains unclear.
This curve is classified as the AN-type on the Higuchi and Connors catalog.[45]−[48] The curve is described by eq 4′ according to the Langmuir adsorption isotherm model.[47]−[51] To process with the linear regression analysis of ordinate ([CD]/γ) referred to abscissa ([CD]), the Hanes–Woolf expression in eq 4′ may be used [drawing 4] 4 [drawing 5] 4′ where n indicates the asymptotic concentration of the drug associated with CD (saturation, maximal γ) and K is equivalent to the drug/CD complex stability constant. […] The stoichiometry of a complex of drugs with CD is difficult to determine; the prevailing opinion is that more than one guest molecule incorporates a host molecule and that hydration or ionization of the guest regulates the solubility of the complex.[46]
Szejtili[46] stated that, in rare cases, the ascending region at lower host concentrations is followed by a plateau region, similar to that of the AN-type saturation curve. Simultaneously, it terminates at any host concentration threshold. It is named the BS-type in the Higuchi and Connors catalog,[45]−[48] and for concentrations higher than the threshold, the guest concentration decreases along a hyperbola, probably according to the solubility product KSP.[49] To analyze this type of pattern, a hypothesis that is yet to be discussed is required.[52] […] At the threshold concentration of CD, the scale of the aggregated dispersoids transcends an upper limit, and the aggregation induces subsequent sedimentation.[52] Thus, the solubility product may be considered a property of poorly soluble aggregated dispersoids containing a tolerable amount of the drug and an excess amount of CD.

[6] = Flask-shaking 1-octanol/water partition, log D–pH profile fitted to Avdeef's diagram; assay type: physicochemical; conditions: modified Britton–Robinson buffers pH 5–11.5, 298 K
Procedure: The aqueous-phase solvents were prepared by mixing 25 mM KH2PO4 and 25 mM Na2HPO4 solutions in 25 mM Pi buffer. The pH was adjusted before fixing the prescribed concentrations of the acid components of the buffer. The JP1 and JP2 buffer solutions were 10 mM sodium citrate/HCl buffer (pH 1.2) and Pi buffer (pH 6.8), which were prepared in compliance with the description for solution media for the dissolution test in Japanese Pharmacopeia (JP)-implemented international harmonization. The modified Britton–Robinson universal pH buffer comprised 28.6 mM KH2PO4, 28.6 mM HBO2, and 28.6 mM NaCl, titrated with 1 M NaOH (here, modified means elimination of barbital to cancel its interaction with organic solutes). For the partition equilibrium examination, the aqueous saturated 1-octanol phase comprised 1-octanol, which was flooded with a modified Britton–Robinson buffer adjusted to the appropriate pH in advance.
The hydrophobic drug dissolved in the aqueous saturated 1-octanol phase was mixed with an isochoric solution of the modified Britton–Robinson buffer (pH 5–11.5), saturated with 1-octanol. Thereafter, the samples in the screw-capped vials were machine-shaken at 298 K in a thermostatic chamber for 60 min and subsequently kept stationary for 60 min; the procedure corresponds to the conventional “flask-shaking” method.[41]−[43] After settling, the pH in the aqueous phase was confirmed using pH indicator strips (MColoHast pH 0–6.0, MQuant pH 7.5–14, and MQuant pH 0–14, Merck, Germany) to be that of the adjusted pH value. Aliquots (10 μL) from the 1-octanol and the aqueous layers were injected into the HPLC instrument. The 1-octanol/water partition coefficients, log P (equivalent to log KOW), and acid dissociation constants, pKa, were optimized using curve fitting, approximated by eq 1 [drawing 1] 1 which is Avdeef’s diagram[44] derived from the Henderson–Hasselbalch expression for the equilibrium between the protonated and deprotonated species. The curve-fitting procedures used the solver module of Microsoft Excel 2016 with the implemented GRG nonlinear option. Approximate curves corresponding to these optimized parameters were drawn, and the pKa and log P values for AVB, OXB, and CUR were obtained.

[7] = Phase-solubility diagram with HP-β-CD; assay type: physicochemical; design: stability constant K1:2 with HP-β-CD: unit not given here
[8] = cited from earlier work
[9] = cited from earlier work; remark: listed apart in the source
[10] = design: method as in Yan et al. 95; conditions: ref Yan et al. 95; cited from earlier work
[11] = cited from earlier work; remark: listed apart in the source
[12] = 25 mM Pi/NaOH buffer pH 6.8, 298 K, Figure 2, in M-1 (unit assumed)
[13] = 25 mM Pi/NaOH buffer pH 6.8, 298 K, Figure 2

Q: With CCCCC(CC)COC(=O)C(C#N)=C(c1ccccc1)c1ccccc1 (stereo not shown) [Octocrylene (OCR), octocrylene] as the molecule, how does the biodegradability [1] read?
A: poorly biodegradable

Q: With CC1CC(OC(=O)c2ccccc2O)CC(C)(C)C1 (stereo not shown) [Homosalate, homosalate] as the molecule, how does the “risk / toxicity property” value [1] read?
A: endocrine-disrupting

Q: For O=S(=O)(O)c1ccc2[nH]c(-c3ccccc3)nc2c1 [Ensulizole, ensulizole], which “risk / toxicity property” value [1] is on record?
A: With photo-oxidizing properties

Q: Which “risk / toxicity property” value [1] does the source give for CCCCC(CC)COC(=O)C=Cc1ccc(OC)cc1 (stereo not shown) [Octinoxate (OCX), octinoxate] here?
A: toxic risks for the marine ecosystem

Q: What does the source list for COc1ccc(C(=O)c2ccccc2)c(O)c1 [OXB]?
A: UVA1 photodegradation (spectral change) ([2]; absence of β-CD): maintenance of the OXB spectrum for 2 days; UVA1 photodegradation (spectral change) ([2]; presence of β-CD): maintenance of the OXB spectrum for 2 days; concentration change under UVA1 irradiation (290 nm absorbance) ([3]; up to 50 h): marginally reduced; stability under solar light compared to UVA1 irradiation ([4]; presence or absence of β-CD): more significant than that observed under UVA1 irradiation; stability constant K1:1 with β-CD [5, 12]: 2019; pKa ([6]; from log D–pH curve fitting, read-out: acid dissociation constant, pKa): 7.97; logP ([6]; neutral form, curve fitting, read-out: 1-octanol/water partition coefficient, log P): 2.99; stability constant K1:1 with HP-β-CD [7, 12]: 366.8; phase-solubility diagram type (Higuchi and Connors) with HP-β-CD ([7]; pH 6.8): AL-type; log Kow ([8]; Chart 1): 3.79; reported pKa [8]: 7.6

Q: For CCOCCOC(=O)C=Cc1ccc(OC)cc1 [Cinoxate, cinoxate], which water solubility [1] is on record?
A: high water solubility

Q: Which “disruption on exposure to UV light” value ([2]; solution containing β-CD) does the source give for curcumin here?
A: 31.90%

Q: And the “disruption on exposure to UV light” value ([2]; solution without β-CD)?
A: 40.95%

Q: What about the “effect of equimolar and 4 mM β-CD on photodegradation velocity / first-order rate” value ([3]; UVA1 365 nm, 25 μM) of the same molecule?
A: decreased

Q: What about the “stability constant K1:1 with HP-β-CD” value ([9]; ref Celebioglu and Uyar 84) of the same molecule?
A: 3073 M^–1

Q: What about the “stability constant K1:1 with HP-β-CD” value ([9]; ref Li et al. 85) of the same molecule?
A: 2941 M^–1

Q: What about the “change in absorption peaks under solar light” value ([4]; presence of β-CD) of the same molecule?
A: significant changes in absorption peaks

Q: What about the “degradation under 425 nm light compared to 620 nm light” value [10] of the same molecule?
A: 1.7 times faster

Q: And the “stability constant K1:2 with β-CD” value [5, 13]?
A: 74.41

Q: And the “stability constant K1:1 with β-CD” value [5, 12]?
A: 771.7

Q: And the “phase-solubility diagram type (Higuchi and Connors) with β-CD” value ([5]; pH 6.8)?
A: AP-type

Q: And the “stability constant K1:1 with β-CD” value ([5]; pH 6.8)?
A: 771.7 M^–1

Q: What about the “acid dissociation constant, pKa” value ([6]; from log D–pH curve fitting) of the same molecule?
A: 8.81

Q: And the “1-octanol/water partition coefficient, log P” value ([6]; neutral form, curve fitting)?
A: 2.65

Q: And the “stability constant K1:2 with HP-β-CD” value [7, 13]?
A: 2.302

Q: And the “stability constant K1:1 with HP-β-CD” value [7, 12]?
A: 6619

Q: And the “phase-solubility diagram type (Higuchi and Connors) with HP-β-CD” value ([7]; pH 6.8)?
A: AP-type

Q: What about the “stability constant K1:1 with HP-β-CD” value ([7]; pH 6.8) of the same molecule?
A: 6619 M^–1

Q: What about the “log P” value [8] of the same molecule?
A: 3.2

Q: And the “updated pKa (first value)” value [8]?
A: 7.56

Q: What about the “updated pKa (second value)” value [8] of the same molecule?
A: 8.72

Q: And the “updated pKa (third value)” value [8]?
A: 10.17

Q: And the “pKa (keto-enol)” value ([8]; first of three pKa values)?
A: 7.8

Q: And the “pKa (first phenolic OH)” value ([8]; second of three pKa values)?
A: 8.5

Q: And the “pKa (second phenolic OH)” value ([8]; third of three pKa values)?
A: 9.0

Q: And the “CUR saturation concentration in reported AN-type diagram” value [11]?
A: ≤ 0.00012 mM

Q: What about the “stability constant K1:1 with β-CD” value ([11]; ref Chen et al. 83) of the same molecule?
A: 198 M^–1

Q: And the “stability constant K1:1 with β-CD” value ([11]; ref Mashaqbef et al. 81)?
A: 487.3 M^–1

Q: What about the “CUR solubility in reported phase-solubility diagram” value ([11]; speculated by the authors from the report) of the same molecule?
A: ≤ 16 µM

Q: For CC(O)COC[C@H]1O[C@@H]2O[C@H]3[C@H](O)[C@@H](O)[C@@H](O[C@H]4[C@H](O)[C@@H](O)[C@@H](O[C@H]5[C@H](O)[C@@H](O)[C@@H](O[C@H]6[C@H](O)[C@@H](O)[C@@H](O[C@H]7[C@H](O)[C@@H](O)[C@@H](O[C@H]8[C@H](O)[C@@H](O)[C@@H](O[C@H]1[C@H](O)[C@H]2O)O[C@@H]8COCC(C)O)O[C@@H]7COCC(C)O)O[C@@H]6COCC(C)O)O[C@@H]5COCC(C)O)O[C@@H]4COCC(C)O)O[C@@H]3COCC(C)O (stereo partly drawn) [HP-β-CD, hydroxypropyl-β-cyclodextrin], which aqueous solubility [8] is on record?
A: more than 400 mmol/L

Q: With CCCCC(CC)COC(=O)c1ccc(N(C)C)cc1 (stereo not shown) [Padimate-O, padimate O] as the molecule, how does the “risk / toxicity property” value [1] read?
A: insignificant risks
